Assay results reported in patent publication US9315517B2, “Imidazol-piperidinyl derivatives as modulators of kinase activity” (Merck Patent GmbH, priority 2012, dated 2016).

Columns and labels:
[1] = biological target: T1, P70S6K (T412E mutant, Millipore) (Homo sapiens, UniProt P23443, T412E); test: P70S6K enzyme assay; format: biochemical; details: enzyme inhibition; 24 μM ATP, 90 min at 25° C., Caliper mobility shift
T1 construct: purchased Millipore
Experimental: (§1) The IC50 values reported for the compounds in the Experimental section were derived from the following protocol for the p70S6K and AKT enzyme assays.
P70S6K inhibitor compounds were diluted and plated in 96 well plates. A reaction mixture including the following components was then added to the compound plate to initiate the enzyme reaction; P70S6K (3 nM, T412E mutant, Millipore) was mixed with 24 μM ATP in an assay buffer containing 100 mM Hepes (pH 7.5), 5 mM MgCl2, 1 mM DTT, 0.015% Brij and 1 μM of the substrate peptide FITC-AHA-AKRRRLSSLRA-OH (derived from the S6 ribosomal protein sequence, FITC=fluorescein isothiocyanate, AHA=6-aminohexanoic acid). The reaction was incubated for 90 min at 25° C., before the addition of 10 mM EDTA to stop the reaction. The proportion of substrate and product (phosphorylated) peptide was analysed on a Caliper Life Sciences Lab Chip 3000, using a pressure of −1.4 psi, and upstream and downstream voltages of −3000 and −700 respectively. Product peaks were resolved before substrate peaks on the resulting chromatograms.

His-AKT (Full Length) = biological target: T2, His-AKT (Full Length) (Homo sapiens, UniProt P31749); test: AKT enzyme assay; format: biochemical; details: enzyme inhibition; 160 uM ATP, 90 min at 25° C., Caliper mobility shift
T2 construct: 0.1 ng/μl His-AKT (Full Length); His; purchased Invitrogen P2999
Experimental: as §1
A TTP Mosquito liquid handling instrument was used to place 125 nl of the appropriate concentration of inhibitor in 100% DMSO (for a dose response curve calculation) into each well of a 384-well plate. To this reaction components were added to a final volume of 12.5 μl: • 0.1 ng/μl His-AKT (Full Length), (Invitrogen, Part # P2999, Lot # 641228C). • 160 uM ATP (Fluke, 02055) • 1 mM DTT (Sigma, D0632) • 1 mM MgCl2 (Sigma, M1028) • 1 μM substrate peptide (sequence FITC-AHA-GRPRTSSFAEG-NH2), synthesized by Tufts Peptide Synthesis service. • 100 mM HEPES pH 7.5 (Calbiochem, 391338) • 0.015% Brij-35 (Sigma, B4184)
The reaction was incubated for 90 min at 25° C., and then stopped by the addition of 70 μl of Stop buffer (100 mM HEPES pH 7.5, 0.015% Brij-35, 10 mM EDTA (Sigma, E7889)).
The plate was read on a Caliper LC 3000 in an Off-Chip mobility shift assay format, using the following parameters for a 12-sipper chip: screening pressure −2.3 psi, upstream voltage −500, and downstream voltage −3000. These conditions caused unphosphorylated substrate and phosphorylated product peptide to resolve as separate peaks allowing direct measurement of percentage of conversion of substrate to product. The percent conversion was plotted against concentration of inhibitor to produce a sigmoidal dose response curve, from which an IC50 was calculated.

T1 sequence (P23443 whole entry T412E): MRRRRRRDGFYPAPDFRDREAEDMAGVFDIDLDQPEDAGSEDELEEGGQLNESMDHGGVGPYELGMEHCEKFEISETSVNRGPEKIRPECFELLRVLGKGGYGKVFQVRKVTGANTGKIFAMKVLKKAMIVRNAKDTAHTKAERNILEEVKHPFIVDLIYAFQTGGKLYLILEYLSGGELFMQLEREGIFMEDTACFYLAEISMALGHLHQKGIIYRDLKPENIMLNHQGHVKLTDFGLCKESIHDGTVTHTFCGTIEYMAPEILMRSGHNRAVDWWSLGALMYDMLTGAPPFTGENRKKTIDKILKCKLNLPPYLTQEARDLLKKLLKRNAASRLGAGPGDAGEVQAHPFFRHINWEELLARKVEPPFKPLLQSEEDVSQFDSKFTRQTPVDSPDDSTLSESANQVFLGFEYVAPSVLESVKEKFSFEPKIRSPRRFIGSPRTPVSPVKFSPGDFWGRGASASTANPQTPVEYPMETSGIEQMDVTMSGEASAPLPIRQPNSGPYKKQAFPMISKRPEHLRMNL
T2 sequence (P31749 whole entry): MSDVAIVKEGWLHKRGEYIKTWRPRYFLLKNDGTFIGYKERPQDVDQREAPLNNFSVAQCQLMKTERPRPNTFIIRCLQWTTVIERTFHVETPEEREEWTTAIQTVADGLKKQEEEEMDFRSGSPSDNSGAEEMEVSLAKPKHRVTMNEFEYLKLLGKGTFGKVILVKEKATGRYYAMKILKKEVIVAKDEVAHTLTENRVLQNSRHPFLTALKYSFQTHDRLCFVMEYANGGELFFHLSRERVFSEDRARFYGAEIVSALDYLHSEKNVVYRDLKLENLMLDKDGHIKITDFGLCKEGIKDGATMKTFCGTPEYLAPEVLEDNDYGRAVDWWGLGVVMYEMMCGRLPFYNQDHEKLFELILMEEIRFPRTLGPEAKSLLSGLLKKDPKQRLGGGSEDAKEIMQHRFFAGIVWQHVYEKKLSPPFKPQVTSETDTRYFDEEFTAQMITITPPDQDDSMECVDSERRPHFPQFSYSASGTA

SMILES: FC(F)(F)c1cc(-c2cn(CCN3CCC3)c(C3CCN(c4ncnc5c4CCC5)CC3)n2)ccn1 [Compound A23, 4-{4-[1-(2-Azetidin-1-yl-ethyl)-4-(2-trifluoromethyl-pyridin-4-yl)-1H-imidazol-2-yl]-piperidin-1-yl}-6,7-dihydro-5H-cyclopentapyrimidine]
- IC50 [1]: < 25 nM
- IC50 (His-AKT (Full Length)): 26 to 100 nM

SMILES: Cc1cc(-c2cn(CCN(C)C)c(C3CCN(c4ncnc5c4CCN5)CC3)n2)ccc1F [Compound A24, {2-[2-[1-(6,7-Dihydro-5H-pyrrolo[2,3-d]pyrimidin-4-yl)-piperidin-4-yl]-4-(4-fluoro-3-methyl-phenyl)-imidazol-1-yl]-ethyl}-dimethylamine]
- IC50 [1]: < 25 nM
- IC50 (His-AKT (Full Length)): < 25 nM

SMILES: COc1cc(-c2cn(CCN(C)C)c(C3CCN(c4ncnc5c4CCN5)CC3)n2)ccc1F [Compound A25, {2-[2-[1-(6,7-Dihydro-5H-pyrrolo[2,3-d]pyrimidin-4-yl)-piperidin-4-yl]-4-(4-fluoro-3-methoxy-phenyl)-imidazol-1-yl]-ethyl}-dimethylamine]
- IC50 [1]: < 25 nM
- IC50 (His-AKT (Full Length)): < 25 nM

SMILES: CN(C)CCn1cc(-c2ccc(F)c(Cl)c2)nc1C1CCN(c2ncnc3c2CCN3)CC1 [Compound A26, (2-{4-(3-Chloro-4-fluoro-phenyl)-2-[1-(6,7-dihydro-5H-pyrrolo[2,3-d]pyrimidin-4-yl)-piperidin-4-yl]-imidazol-1-yl}-ethyl)-dimethylamine]
- IC50 [1]: < 25 nM
- IC50 (His-AKT (Full Length)): < 25 nM

SMILES: CN(C)CCn1cc(-c2ccnc(C(F)(F)F)c2)nc1C1CCN(c2ncnc3c2CCN3)CC1 [Compound A27, {2-[2-[1-(6,7-Dihydro-5H-pyrrolo[2,3-d]pyrimidin-4-yl)-piperidin-4-yl]-4-(2-trifluoromethyl-pyridin-4-yl)-imidazol-1-yl]-ethyl}-dimethylamine]
- IC50 [1]: < 25 nM
- IC50 (His-AKT (Full Length)): 26 to 100 nM

SMILES: Fc1ccc(-c2cn(CCN3CCC3)c(C3CCN(c4ncnc5c4CCN5)CC3)n2)cc1C(F)(F)F [Compound A28, 4-{4-[1-(2-Azetidin-1-yl-ethyl)-4-(4-fluoro-3-trifluoromethyl-phenyl)-1H-imidazol-2-yl]-piperidin-1-yl}-6,7-dihydro-5H-pyrrolo[2,3-d]pyrimidine]
- IC50 [1]: < 25 nM
- IC50 (His-AKT (Full Length)): < 25 nM

SMILES: Cc1cc(-c2cn(CCN3CCC3)c(C3CCN(c4ncnc5c4CCN5)CC3)n2)ccc1F [Compound A29, 4-{4-[1-(2-Azetidin-1-yl-ethyl)-4-(4-fluoro-3-methyl-phenyl)-1H-imidazol-2-yl]-piperidin-1-yl}-6,7-dihydro-5H-pyrrolo[2,3-d]pyrimidine]
- IC50 [1]: < 25 nM
- IC50 (His-AKT (Full Length)): < 25 nM

SMILES: FC(F)(F)c1cc(-c2cn(CCN3CCC3)c(C3CCN(c4ncnc5c4CCN5)CC3)n2)ccn1 [Compound A30, 4-{4-[1-(2-Azetidin-1-yl-ethyl)-4-(2-trifluoromethyl-pyridin-4-yl)-1H-imidazol-2-yl]-piperidin-1-yl}-6,7-dihydro-5H-pyrrolo[2,3-d]pyrimidine]
- IC50 [1]: < 25 nM
- IC50 (His-AKT (Full Length)): < 25 nM

SMILES: Fc1ccc(-c2cn(CCN3CCC3)c(C3CCN(c4ncnc5c4CCN5)CC3)n2)cc1Cl [Compound A31, 4-{4-[1-(2-Azetidin-1-yl-ethyl)-4-(3-chloro-4-fluoro-phenyl)-1H-imidazol-2-yl]-piperidin-1-yl}-6,7-dihydro-5H-pyrrolo[2,3-d]pyrimidine]
- IC50 [1]: < 25 nM
- IC50 (His-AKT (Full Length)): < 25 nM

SMILES: CN(C)CCn1cc(-c2ccc(F)c(C(F)(F)F)c2)nc1C1CCN(c2ncnc3c2CCCN3)CC1 [Compound A32, (2-{4-(4-Fluoro-3-trifluoromethyl-phenyl)-2-[1-(5,6,7,8-tetrahydro-pyrido[2,3-d]pyrimidin-4-yl)-piperidin-4-yl]-imidazol-1-yl}-ethyl)-dimethylamine]
- IC50 [1]: < 25 nM
- IC50 (His-AKT (Full Length)): < 25 nM

SMILES: Cc1cc(-c2cn(CCN(C)C)c(C3CCN(c4ncnc5c4CCCN5)CC3)n2)ccc1F [Compound A33, (2-{4-(4-Fluoro-3-methyl-phenyl)-2-[1-(5,6,7,8-tetrahydro-pyrido[2,3-d]pyrimidin-4-yl)-piperidin-4-yl]-imidazol-1-yl}-ethyl)-dimethylamine]
- IC50 [1]: < 25 nM
- IC50 (His-AKT (Full Length)): < 25 nM

SMILES: COc1cc(-c2cn(CCN(C)C)c(C3CCN(c4ncnc5c4CCCN5)CC3)n2)ccc1F [Compound A34, (2-{4-(4-Fluoro-3-methoxy-phenyl)-2-[1-(5,6,7,8-tetrahydro-pyrido[2,3-d]pyrimidin-4-yl)-piperidin-4-yl]-imidazol-1-yl}-ethyl)-dimethylamine]
- IC50 [1]: < 25 nM
- IC50 (His-AKT (Full Length)): < 25 nM

SMILES: CN(C)CCn1cc(-c2ccc(F)c(Cl)c2)nc1C1CCN(c2ncnc3c2CCCN3)CC1 [Compound A35, (2-{4-(3-Chloro-4-fluoro-phenyl)-2-[1-(5,6,7,8-tetrahydro-pyrido[2,3-d]pyrimidin-4-yl)-piperidin-4-yl]-imidazol-1-yl}-ethyl)-dimethylamine]
- IC50 [1]: < 25 nM
- IC50 (His-AKT (Full Length)): < 25 nM

SMILES: CN(C)CCn1cc(-c2ccnc(C(F)(F)F)c2)nc1C1CCN(c2ncnc3c2CCCN3)CC1 [Compound A36, Dimethyl-{2-[2-[1-(5,6,7,8-tetrahydro-pyrido[2,3-d]pyrimidin-4-yl)-piperidin-4-yl]-4-(2-trifluoromethyl-pyridin-4-yl)-imidazol-1-yl]-ethyl}-amine]
- IC50 [1]: < 25 nM
- IC50 (His-AKT (Full Length)): < 25 nM

SMILES: Fc1ccc(-c2cn(CCN3CCC3)c(C3CCN(c4ncnc5c4CCCN5)CC3)n2)cc1C(F)(F)F [Compound A37, 4-{4-[1-(2-Azetidin-1-yl-ethyl)-4-(4-fluoro-3-trifluoromethyl-phenyl)-1H-imidazol-2-yl]-piperidin-1-yl}-5,6,7,8-tetrahydro-pyrido[2,3-d]pyrimidine]
- IC50 [1]: < 25 nM
- IC50 (His-AKT (Full Length)): < 25 nM

SMILES: Fc1ccc(-c2cn(CCN3CCC3)c(C3CCN(c4ncnc5c4CCCN5)CC3)n2)cc1Cl [Compound A38, 4-{4-[1-(2-Azetidin-1-yl-ethyl)-4-(3-chloro-4-fluoro-phenyl)-1H-imidazol-2-yl]-piperidin-1-yl}-5,6,7,8-tetrahydro-pyrido[2,3-d]pyrimidine]
- IC50 [1]: < 25 nM
- IC50 (His-AKT (Full Length)): < 25 nM

SMILES: O=C1CNc2ncnc(N3CCC(c4nc(-c5ccc(F)c(C(F)(F)F)c5)cn4CCN4CCCC4)CC3)c2N1 [Compound A39, 4-{4-[4-(4-fluoro-3-trifluoromethyl-phenyl)-1-(2-pyrrolidin-1-yl-ethyl)-1H-imidazol-2-yl]-piperidin-1-yl}-7,8-dihydro-5H-pteridin-6-one]
- IC50 [1]: < 25 nM
- IC50 (His-AKT (Full Length)): < 25 nM

SMILES: O=C1CNc2ncnc(N3CCC(c4nc(-c5ccc(F)c(C(F)(F)F)c5)cn4CCN4CCC4)CC3)c2N1 [Compound A40, 4-{4-[4-(4-fluoro-3-trifluoromethyl-phenyl)-1-(2-azetidin-1-yl-ethyl)-1H-imidazol-2-yl]-piperidin-1-yl}-7,8-dihydro-5H-pteridin-6-one]
- IC50 [1]: < 25 nM
- IC50 (His-AKT (Full Length)): < 25 nM

SMILES: CN(C)CCn1cc(-c2ccc(F)c(C(F)(F)F)c2)nc1C1CCN(c2ncnc3c2NC(=O)CN3)CC1 [Compound A41, 4-{4-[4-(4-fluoro-3-trifluoromethyl-phenyl)-1-(2-dimethyamine-1-yl-ethyl)-1H-imidazol-2-yl]-piperidin-1-yl}-7,8-dihydro-5H-pteridin-6-one]
- IC50 [1]: < 25 nM
- IC50 (His-AKT (Full Length)): < 25 nM

SMILES: Cc1cc(-c2cn(CCN3CCC3)c(C3CCN(c4ncnc5c4NC(=O)CN5)CC3)n2)ccc1F [Compound A42, 4-{4-[4-(4-fluoro-3-methyl-phenyl)-1-(2-azetidin-1-yl-ethyl)-1H-imidazol-2-yl]-piperidin-1-yl}-7,8-dihydro-5H-pteridin-6-one]
- IC50 [1]: < 25 nM
- IC50 (His-AKT (Full Length)): 26 to 100 nM

SMILES: O=C1CNc2ncnc(N3CCC(c4nc(-c5ccnc(C(F)(F)F)c5)cn4CCN4CCC4)CC3)c2N1 [Compound A43, 4-{4-[1-(2-azetidin-1-yl-ethyl)-4-(2-trifluoromethyl-pyridin-4-yl)-1H-imidazol-2-yl]-piperidin-1-yl}-7,8-dihydro-5H-pteridin-6-one]
- IC50 [1]: < 25 nM
- IC50 (His-AKT (Full Length)): 26 to 100 nM

SMILES: O=C1CNc2ncnc(N3CCC(c4nc(-c5ccnc(C6CC6)c5)cn4CCN4CCC4)CC3)c2N1 [Compound A44, 4-{4-[1-(2-azetidin-1-yl-ethyl)-4-(2-cyclopropyl-pyridin-4-yl)-1H-imidazol-2-yl]-piperidin-1-yl}-7,8-dihydro-5H-pteridin-6-one]
- IC50 [1]: < 25 nM
- IC50 (His-AKT (Full Length)): 101 to 500 nM
